Molecules are shown by their SMILES.

Here are results for 17 compounds from US11976083B2, “Inhibitors of peptidylarginine deiminases” (Gilead Sciences, Inc., priority 2020, dated 2024).

For this assay, the target named is T1, human PAD4 (Homo sapiens, UniProt Q9UM07).
T1 construct: human PAD4 (NM_012387), A2-P663, was PCR amplified; His-SUMO (N, cleaved yes); made in house; host or cells: E. coli BL21(DE3)
The assay can be described thus: In vitro PAD4 BAEE biochemical assay. Conditions: BAEE substrate 3 mM, 5 nM PAD4, 2 mM calcium chloride; geometric mean of multiple experiments. The source says:
In Vitro PAD4 BAEE Biochemical Assay
The enzymatic activity of human PAD4 was monitored in a biochemical assay in the presence or absence of compounds using the small peptidyl arginine mimic BAEE (Na-Benzoyl-L-arginine ethyl ester hydrochloride) as substrate. PAD4 activity led to deimination of BAEE and release of ammonia. Levels of ammonia were monitored by using an amine coupling reaction and were indicative of PAD4 enzymatic activity.
One hundred nanoliters of test compounds dissolved in DMSO at various concentrations were dispensed into a 384-well black OptiPlate using a Labcyte Echo instrument. Ten microliters of a solution of recombinant PAD4 and calcium chloride diluted in PAD4 assay buffer (50 mM MOPS [3-(N-morpholino) propanesulfonic acid], pH 7.6; 50 mM sodium chloride; 0.05% Tween-20; 2 mM dithiothreitol) was added to the compound-containing plate and was incubated for 30 minutes at 25° C. Ten microliters of a solution of BAEE (Sigma-Aldrich #B4500) diluted in PAD4 assay buffer was then added to start the reaction. Final concentrations were 5 nM PAD4, 2 mM calcium chloride, and 3 mM BAEE. The reaction mixture was incubated at 25° C. for 2 hours and was stopped with the addition of 10 microliters of a solution of 75 mM EDTA (Ethylenediaminetetraacetic acid) in PAD4 assay buffer. Thirty microliters of detection solution (5 mM o-phthalaldehyde, 50 mM MOPS [3-(N-morpholino) propanesulfonic acid], pH 7.6; 50 mM sodium chloride; 0.05% Tween-20; 5 mM dithiothreitol) was then added and the reaction was incubated for 1 hour at 25° C. The level of fluorescent thiol-substituted isoindole resulting from the reaction of ammonia, o-phthalaldehyde, and dithiothreitol was measured on an Envision plate reader (PerkinElmer) with 405 nm excitation and 535 nm emission.
Data were normalized based on maximum inhibition (50 micromolar of the covalent PAD inhibitor BB-Cl-Amidine (Bicker, K. L.; Anguish, L.; Chumanevich, A. A.; Cameron, M. D.; Cui, X.; Witalison, E.; Subramanian, V.; Zhang, X.; Chumanevich, A. P.; Hofseth, L. J.; Coonrod, S. A.; Thompson, P. R. ACS Med. Chem. Lett. 2012, 3, 1081-1085). and no inhibition (DMSO) controls. Least squares curve fittings were performed using a four-parameter variable slope nonlinear regression model. IC50 is defined as the concentration of compound required to inhibit 50% of maximum activity. IC50 values from multiple experiments were averaged by geometric mean and the standard deviation was calculated.

T1 sequence (Q9UM07 2-663): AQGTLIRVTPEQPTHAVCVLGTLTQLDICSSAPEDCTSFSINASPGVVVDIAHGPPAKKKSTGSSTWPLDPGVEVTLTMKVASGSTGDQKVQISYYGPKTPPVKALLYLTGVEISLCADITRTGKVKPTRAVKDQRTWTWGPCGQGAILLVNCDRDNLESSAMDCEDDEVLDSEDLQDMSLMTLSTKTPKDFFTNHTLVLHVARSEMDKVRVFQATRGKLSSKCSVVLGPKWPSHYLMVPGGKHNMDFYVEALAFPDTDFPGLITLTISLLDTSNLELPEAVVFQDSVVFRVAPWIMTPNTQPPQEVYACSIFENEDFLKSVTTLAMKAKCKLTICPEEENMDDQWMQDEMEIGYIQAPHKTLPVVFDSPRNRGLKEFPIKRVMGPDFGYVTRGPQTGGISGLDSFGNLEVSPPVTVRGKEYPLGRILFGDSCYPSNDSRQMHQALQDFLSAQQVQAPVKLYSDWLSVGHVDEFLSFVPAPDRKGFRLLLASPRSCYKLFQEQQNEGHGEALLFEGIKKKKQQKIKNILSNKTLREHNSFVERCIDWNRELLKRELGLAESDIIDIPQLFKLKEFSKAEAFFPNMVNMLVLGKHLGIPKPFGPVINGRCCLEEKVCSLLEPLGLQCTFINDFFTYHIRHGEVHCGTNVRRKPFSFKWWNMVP

Regarding `COc1cc(C(=O)N2CC[C@@H](OC)[C@@H](N)C2)cc2nc(-c3cc4ccc5nc4n3CCCCCC[C@@]3(CCCO3)C(=O)N[C@@H]5C)n(C)c12` [Example 687, (8~{R},11~{R})-17-[5-[(3~{S),4~{R})-3-amino-4-methoxy-piperidine-1-carbonyl]-7-methoxy-1-methyl-benzimidazol-2-yl]-11-methyl-spiro[1,10,19-triazatricyclo[10.5.2.0^ {15,18}]nonadeca-12(19),13,15(18),16-tetraene-8,2′-tetrahydrofuran]-9-one], the IC50 (usually the concentration that inhibits the measured activity by half) was 64 nM.

For `CCO[C@@H]1CCN(C(=O)c2cc(OC)c3c(c2)nc(-c2cc4ccc5nc4n2CCCCCCC(C)(C)C(=O)N[C@@H]5C)n3C)C[C@@H]1N` [Example 104, (11~{R})-17-[5-[(3~{S},4~{R})-3-amino-4-ethoxy-piperidine-1-carbonyl]-7-methoxy-1-methyl-benzimidazol-2-yl]-8,8,11-trimethyl-1,10,19-triazatricyclo[10.5.2.0^{15,18}]nonadeca-12(19),13,15(18),16-tetraen-9-one], the half-maximal inhibitory concentration (IC50) is 115 nM.

`CO[C@@H]1CCN(C(=O)c2cc(F)c3c(c2)nc(-c2cc4ccc5nc4n2CC(F)(F)/C=C/C[C@@H]2C[C@H]2C(=O)N[C@@H]5C)n3C)C[C@@H]1N` [Example 739]: the IC50 worked out at 62 nM.

Regarding `COc1cc(C(=O)N2[C@H]3CC[C@@H]2[C@H](N)C3)cc2nc(-c3cc4ccc5nc4n3CCCCC[C@@H]3C[C@H]3C(=O)N[C@@H]5C)n(C)c12` (single isomer, unassigned) [Example 223, (2˜{R},5˜{R},7˜{R})-14-[5-[(1˜{R},2˜{R},4˜{S})-2-amino-7-azabicyclo[2.2.1]heptane-7-carbonyl]-7-methoxy-1-methyl-benzimidazol-2-yl]-2-methyl-3,13,19-triazatetracyclo[11.5.2.0^{5,7}.0^{16,20}]icosa-1(19),14,16(20),17-tetraen-4-one], the concentration for half-maximal inhibition (IC50) came to 28 nM.

As to `COc1cc(C(=O)N[C@H]2CNC[C@H](C)C2)cc2nc(-c3cc4ccc5nc4n3CCCCCCC(C)(C)C(=O)N[C@@H]5C)n(C)c12` [Example 67, 7-methoxy-1-methyl-~{N}-[(3~{R},5~{R})-5-methyl-3-piperidyl]-2-[(11~{R})-8,8,11-trimethyl-9-oxo-1,10,19-triazatricyclo[10.5.2.0^{15,18}]nonadeca-12(19),13,15(18),16-tetraen-17-yl]benzimidazole-5-carboxamide], the IC50 worked out at 1300 nM.

Consider `C[C@H]1NC(=O)c2cc3ccccc3nc2CCCCCn2c(-c3nc4cc(C(=O)N5C[C@H](N)[C@@H]6CC[C@H]5C6)cc(F)c4n3C3CC3)cc3ccc1nc32` [Example 476, (2~{R})-21-[5-[(1~{S),4~{R},5~{R})-4-amino-2-azabicyclo[3.2.1]octane-2-carbonyl]-1-cyclopropyl-7-fluoro-benzimidazol-2-yl]-2-methyl-3,13,20,26-tetrazapentacyclo[18.5.2.0^{5,14).0^ {7,12}.0^{23,27}]heptacosa-1(26),5(14),6,8,10,12,21,23(27),24-nonaen-4-one], for which the IC50 was found to be 38 nM.

In the case of `COc1cc(C(=O)N[C@H]2CNCC[C@@H]2F)cc2nc(-c3cc4ccc5nc4n3CCCCC[C@H]3C[C@H]3C(=O)N[C@@H]5C)n(C)c12` [Example 518], the IC50 amounted to 49 nM.

For `COc1cc(C(=O)N2CC[C@@H](OC)[C@@H](N)C2)cc2nc(-c3cc4ccc5nc4n3CCCC(F)(F)C[C@@H]3C[C@H]3C(=O)N[C@@H]5C)n(C)c12` [Example 857], the half-maximal inhibitory concentration (IC50) was determined as 13 nM.

With `COc1cc(C(=O)N2C[C@@H]3C[C@@H]3[C@@H](N)C2)cc2nc(-c3cc4ccc5nc4n3CCCCCCC(C)(C)C(=O)N[C@@H]5C)n(C)c12` [Example 535, (11~{R})-17-[5-[(1~ {R},5~{R},6~{S})-5-amino-3-azabicyclo[4.1.0]heptane-3-carbonyl]-7-methoxy-1-methyl-benzimidazol-2-yl]-8,8,11-trimethyl-1,10,19-triazatricyclo[10.5.2.0^ {15,18}]nonadeca-12(19),13,15(18),16-tetraen-9-one], the half-inhibitory concentration (IC50) is 384 nM.

As for `Cc1nccc2c1C(=O)N[C@H](C)c1ccc3cc(-c4nc5cc(C(=O)N[C@H]6CNCC[C@@H]6F)c(F)cc5n4C4CC4)n(c3n1)CCCCC2` [Example 396, 1-cyclopropyl-2-[(2~{R})-2,6-dimethyl-4-oxo-3,7,16,22-tetrazatetracyclo[14.5.2.0^{5,10}.0^{19,23}]tricosa-1(22),5(10),6,8,17,19(23),20-heptaen-17-yl]-6-fluoro-~{N}-[(3~{S},4~{S})-4-fluoro-3-piperidyl]benzimidazole-5-carboxamide], the half-inhibitory concentration (IC50) is 17 nM.

In the case of `COc1cc(C(=O)N2[C@H]3CC[C@@H]2[C@H](N)C3)cc2nc(-c3cc4ccc5nc4n3CCCCCCCC(=O)N3CCC[C@H]53)n(C)c12` [Example 125, (2˜{R})-16-[5-[(1˜{R},2˜{R},4˜{S})-2-amino-7-azabicyclo[2.2.1]heptane-7-carbonyl)-7-methoxy-1-methyl-benzimidazol-2-yl]-6,15,21-triazatetracyclo[13.5.2.0^{2,6}.0^{18,22}]docosa-1(21),16,18(22),19-tetraen-7-one], the IC50 worked out at 21 nM.

Take `C[C@H]1NC(=O)[C@@H]2C[C@H]2CCCC(F)(F)Cn2c(-c3nc4cc(C(=O)N5C[C@H](N)[C@@H]6CC[C@H]5C6)cc(F)c4n3C3CC3)cc3cc(F)c1cc32` [Example 464, (2~{R},5~{R},7~{R})-14-[5-[(1~{S},4~{R},5~{R})-4-amino-2-azabicyclo[3.2.1]octane-2-carbonyl]-1-cyclopropyl-7-fluoro-benzimidazol-2-yl]-11,11,18-trifluoro-2-methyl-3,13-diazatetracyclo[11.5.2.0^{5,7}.0^{16,20}] icosa-1(19),14,16(20),17-tetraen-4-one]: the IC50 came out at 28 nM.

For `COc1cc(C(=O)N2CC[C@@H](OC(F)F)[C@@H](N)C2)cc2nc(-c3cc4ccc5nc4n3CCCCCCC(C)(C)C(=O)N[C@@H]5C)n(C)c12` [Example 297, (11~{R})-17-[5-[(3~{S},4~{R})-3-amino-4-(difluoromethoxy)piperidine-1-carbonyl]-7-methoxy-1-methyl-benzimidazol-2-yl]-8,8,11-trimethyl-1,10,19-triazatricyclo[10.5.2.0^{15,18}]nonadeca-12(19),13,15(18),16-tetraen-9-one], the concentration for half-maximal inhibition (IC50) was found to be 129 nM.

Turning to `C[C@H]1NC(=O)C(C)(C)CCCCCCn2c(-c3nc4cc(C(=O)N5CCC[C@@H](N)C5)ccc4n3C3CC3)cc3ccc1nc32` [Example 117, (11~{R})-17-[5-[(3~{R})-3-aminopiperidine-1-carbonyl]-1-cyclopropyl-benzimidazol-2-yl]-8,8,11-trimethyl-1,10,19-triazatricyclo[10.5.2.0^{15,18}]nonadeca-12(19),13,15(18),16-tetraen-9-one], the IC50 was found to be 54 nM.

On to `C[C@H]1NC(=O)[C@H]2C[C@@H]2CCCCCn2c(-c3nc4cc(C(=O)N[C@H]5CNCC[C@@H]5F)c(F)cc4n3C3CC3)cc3ccc1nc32` [Example 539, 1-cyclopropyl-6-fluoro-~{N}-[(3~{S},4~{S})-4-fluoro-3-piperidyl]-2-[(2~{R},5~{S},7~ {S})-2-methyl-4-oxo-3,13,19-triazatetracyclo [11.5.2.0^{5,7}.0^{16,20}]icosa-1(19),14,16 (20),17-tetraen-14-yl]benzimidazole-5-carboxamide], for which the half-maximal inhibitory concentration (IC50) was found to be 175 nM.

As to `COc1cc(C(=O)N2[C@H]3CC[C@@H]2[C@H](N)C3)cc2nc(-c3cc4ccc5nc4n3CCCCCC(=O)N[C@@H]5C)c(C)n12` [Example 320, (9~{R})-15-[7-[(1~{R},2~{R},4~{S})-2-amino-7-azabicyclo[2.2.1]heptane-7-carbonyl]-5-methoxy-3-methyl-imidazo[1,2-a]pyridin-2-yl]-9-methyl-1,8,17-triazatricyclo[8.5.2.0^{13,16}]heptadeca-10(17),11,13(16),14-tetraen-7-one], the concentration for half-maximal inhibition (IC50) is 17 nM.

Regarding `COC(C)Cn1c(-c2cc3ccc4nc3n2CCCCC[C@@H]2C[C@H]2C(=O)N[C@@H]4C)nc2cc(C(=O)N[C@H]3CNCC[C@@H]3F)c(F)cc21` (some centres unmarked) [Example 430, 6-fluoro-~{N}-[(3~{S},4~{S})-4-fluoro-3-piperidyl]-1-(2-methoxypropyl)-2-[(2~{R},5~{R},7~{R})-2-methyl-4-oxo-3,13,19-triazatetracyclo[11.5.2.0^{5,7}.0^{16,20}]icosa-1(19),14,16(20),17-tetraen-14-yl]benzimidazole-5-carboxamide], the IC50 came out at 44 nM.
